Experimental findings from patent US5061714A, “Isoquinoline composition for the treatment of glaucoma or ocular hypertension” (priority 1989, dated 1991) are described below.

A short description of the series: Acute toxicity test (LD50) in mice. The note with it: mouse, in vivo. The method, then: 4-(3-tert.-Butylamino-2-hydroxypropoxy)-2-methyl-1-isoquinolinone hydrochloride and 4-(3-tert.-butylamino-2-hydroxypropoxy)-1-isoquinolinonehydrochloride, respectively were administered to mice to determine the LD50 value.

Structures can show the parent of a compound that is named as a salt.

Broadly, the LD50 is the dose expected to kill half of the subjects tested. As for `CC(C)(C)NCC(O)COc1c[nH]c(=O)c2ccccc12` (centres unmarked) [4-(3-tert.-butylamino-2-hydroxypropoxy)-1-isoquinolinonehydrochloride], the LD50 is, setting by setting: (ip, intraperitoneal, female) 367 mg/kg; (ip, intraperitoneal, male) 382 mg/kg; (po, female) 2470 mg/kg; (po, male) 2810 mg/kg.
As for `Cl.Cn1cc(OCC(O)CNC(C)(C)C)c2ccccc2c1=O` (centres unmarked) [4-(3-tert.-butylamino-2-hydroxypropoxy)-2-methyl-1-isoquinolinone hydrochloride], the LD50 (ip, intraperitoneal, female) was 557 mg/kg; the LD50 (ip, intraperitoneal, male) worked out at 578 mg/kg; the LD50 (po, female) turned out to be 1290 mg/kg; the LD50 (po, male) came to 1390 mg/kg.
